Assay results published in patent US10160755B2 (Plexxikon Inc., priority 2015, dated 2018).

Molecular target: T1, BA/F3-FLT3-ITD + F691L cells (Homo sapiens, UniProt P36888, F691L, cells depend on it, form not given)
T1 sequence (P36888 1-993 F691L): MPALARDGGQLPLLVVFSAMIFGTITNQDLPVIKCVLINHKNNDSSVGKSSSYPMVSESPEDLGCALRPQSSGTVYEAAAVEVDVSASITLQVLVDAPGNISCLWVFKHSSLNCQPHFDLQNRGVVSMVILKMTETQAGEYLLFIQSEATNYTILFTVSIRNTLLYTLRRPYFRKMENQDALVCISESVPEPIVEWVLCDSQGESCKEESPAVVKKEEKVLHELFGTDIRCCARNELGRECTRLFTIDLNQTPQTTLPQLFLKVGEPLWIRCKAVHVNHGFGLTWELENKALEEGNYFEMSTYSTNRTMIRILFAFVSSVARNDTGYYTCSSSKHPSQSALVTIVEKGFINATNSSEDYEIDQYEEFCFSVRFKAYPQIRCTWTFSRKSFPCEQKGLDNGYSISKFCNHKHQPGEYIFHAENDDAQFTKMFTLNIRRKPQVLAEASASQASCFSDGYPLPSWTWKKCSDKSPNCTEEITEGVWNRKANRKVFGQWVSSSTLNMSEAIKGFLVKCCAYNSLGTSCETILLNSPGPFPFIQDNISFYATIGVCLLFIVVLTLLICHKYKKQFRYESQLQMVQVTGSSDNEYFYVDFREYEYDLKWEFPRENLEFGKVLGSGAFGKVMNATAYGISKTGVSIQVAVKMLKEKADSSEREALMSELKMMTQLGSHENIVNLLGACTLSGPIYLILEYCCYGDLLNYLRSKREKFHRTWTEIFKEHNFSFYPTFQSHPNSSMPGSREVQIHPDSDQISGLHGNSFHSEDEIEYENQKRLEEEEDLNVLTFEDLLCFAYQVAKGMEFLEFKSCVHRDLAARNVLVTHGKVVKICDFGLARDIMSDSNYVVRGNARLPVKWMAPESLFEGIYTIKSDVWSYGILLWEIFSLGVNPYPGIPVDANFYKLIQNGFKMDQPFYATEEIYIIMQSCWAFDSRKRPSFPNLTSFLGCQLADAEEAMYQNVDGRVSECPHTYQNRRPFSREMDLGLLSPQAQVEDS
Experiment: BA/F3-FLT3-ITD + F691L cell proliferation assay (CellTiter-Glo)
Assay type: cell-based, murine
Conditions: BaF3 FLT3 ITD/F691L cells; read-out: Cell Activity (IC50 μM) BaF3_FLT3_ITD/F691L
Summary of the method: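 Three-day growth assay, IC50 from CellTiter-Glo ATP luminescence vs concentration. Compounds at 10 to 0.0046 μM (1:3 steps, final DMSO 0.2%) on 1×10^4 cells/well. Cells are IL-3-independent BA/F3 lines engineered to express full-length FLT3-ITD with the D835Y or the F691L mutation.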

| GI50 [µM] | Structure (SMILES) |
| --- | --- |
| 0.0001 to 1 | CC(C)(C)n1cnc2ccc(-c3c[nH]c4nnc(Cl)cc34)cc21 [P-314, 5-(3-tert-butylbenzimidazol-5-yl)-3-chloro-7H-pyrrolo[2,3-c]pyridazine] |
| 0.0001 to 1 | CC(C)(C)n1cnc2ccc(-c3c[nH]c4ncc(-c5ccnc(N6CCCCC6)c5)nc34)cc21 [P-338, 7-(3-tert-butylbenzimidazol-5-yl)-2-[2-(1-piperidyl)-4-pyridyl]-5H-pyrrolo[2,3-b]pyrazine] |
| 0.0001 to 1 | Cc1cc(C#Cc2cnc3[nH]cc(-c4ccc5ncn(C(C)(C)C)c5c4)c3n2)cc(C)n1 [P-282, 7-(3-tert-butylbenzimidazol-5-yl)-2-[2-(2,6-dimethyl-4-pyridyl)ethynyl]-5H-pyrrolo[2,3-b]pyrazine] |
| 0.0001 to 1 | COc1cc(-c2cc3c(-c4ccc5ncn(C(C)(C)C)c5c4)c[nH]c3nn2)ccn1 [P-315, 5-(3-tert-butylbenzimidazol-5-yl)-3-(2-methoxy-4-pyridyl)-7H-pyrrolo[2,3-c]pyridazine] |
| 0.0001 to 1 | CCN1CCN(c2cccc(-c3cnc4[nH]cc(-c5ccc6ncn(C(C)(C)C)c6c5)c4n3)c2)CC1 [P-330, 7-(3-tert-butylbenzimidazol-5-yl)-2-[3-(4-ethylpiperazin-1-yl)phenyl]-5H-pyrrolo[2,3-b]pyrazine] |
| 0.0001 to 1 | COc1cc(-c2cnc3[nH]cc(-c4ccc5ncn(C6(C(F)(F)F)CC6)c5c4)c3n2)ccn1 [P-312, 2-(2-methoxy-4-pyridyl)-7-[3-[1-(trifluoromethyl)cyclopropyl]benzimidazol-5-yl]-5H-pyrrolo[2,3-b]pyrazine] |
| 0.0001 to 1 | CC(C)(C)n1cnc2ccc(-c3c[nH]c4ncc(-c5ccc(N6CCCCC6)nc5)nc34)cc21 [P-347, 7-(1-(tert-butyl)-1H-benzo[d]imidazol-6-yl)-2-(6-(piperidin-1-yl)pyridin-3-yl)-5H-pyrrolo[2,3-b]pyrazine] |
| 0.0001 to 1 | CC(C)(C)n1cnc2ccc(-c3n[nH]c4ncc(-c5ccnc(N6CCOCC6)c5)cc34)cc21 [P-297, 4-[4-[3-(3-tert-butylbenzimidazol-5-yl)-1H-pyrazolo[3,4-b]pyridin-5-yl]-2-pyridyl]morpholine] |
| 0.0001 to 1 | COc1cnc2[nH]cc(-c3ccc4ncn(C5CCC5)c4c3)c2c1 [P-061, 1-cyclobutyl-6-(5-methoxy-1H-pyrrolo[2,3-b]pyridin-3-yl)benzimidazole] |
| 0.0001 to 1 | CC(C)(C)n1cnc2ccc(-c3c[nH]c4ncc(-c5cccc(N6CCOCC6)c5)cc34)cc21 [P-316, 4-[3-[3-(3-tert-butylbenzimidazol-5-yl)-1H-pyrrolo[2,3-b]pyridin-5-yl]phenyl]morpholine] |
| 0.0001 to 1 | COc1cc(-c2cnc3[nH]cc(-c4ccc5ncn(C(C)(C)C)c5c4)c3c2)c(OC)nn1 [P-292, 1-tert-butyl-6-[5-(3,6-dimethoxypyridazin-4-yl)-1H-pyrrolo[2,3-b]pyridin-3-yl]benzimidazole] |
| 0.0001 to 1 | CC(C)(C)n1cnc2ccc(-c3c[nH]c4ncc(-c5cnc(C#N)nc5)nc34)cc21 [P-352, 5-[7-(3-tert-butylbenzimidazol-5-yl)-5H-pyrrolo[2,3-b]pyrazin-2-yl]pyrimidine-2-carbonitrile] |
| 0.0001 to 1 | CCN1CCN(c2ccc(-c3cnc4[nH]cc(-c5ccc6ncn(C7CCCNC7)c6c5)c4n3)cn2)CC1 (stereo not shown) [P-366, 2-[6-(4-ethylpiperazin-1-yl)-3-pyridyl]-7-[3-(3-piperidyl)benzimidazol-5-yl]-5H-pyrrolo[2,3-b]pyrazine] |
| 0.0001 to 1 | CC(C)(C)n1cnc2ccc(-c3c[nH]c4ncc(-c5ccc(N6CCOCC6)nc5)nc34)cc21 [P-326, 4-[5-[7-(3-tert-butylbenzimidazol-5-yl)-5H-pyrrolo[2,3-b]pyrazin-2-yl]-2-pyridyl]morpholine] |
| 0.0001 to 1 | CCN1CCN(c2cc(-c3cnc4[nH]cc(-c5ccc6ncn(C(C)(C)C)c6c5)c4n3)ccn2)CC1 [P-328, 7-(3-tert-butylbenzimidazol-5-yl)-2-[2-(4-ethylpiperazin-1-yl)-4-pyridyl]-5H-pyrrolo[2,3-b]pyrazine] |
| 0.0001 to 1 | c1cc(N2CCOCC2)ncc1-c1cnc2[nH]cc(-c3ccc4ncn(C5CCCNC5)c4c3)c2n1 (stereo not shown) [P-325, 4-[5-[7-[3-(3-piperidyl)benzimidazol-5-yl]-5H-pyrrolo[2,3-b]pyrazin-2-yl]-2-pyridyl]morpholine] |

| GI50 [µM] | Structure (SMILES) |
| --- | --- |
| 0.0001 to 1 | c1cc(-c2cnc3[nH]cc(-c4ccc5ncn(C6CCCNC6)c5c4)c3n2)cc(N2CCCCC2)n1 (stereo not shown) [P-339, 7-[3-(3-piperidyl)benzimidazol-5-yl]-2-[2-(1-piperidyl)-4-pyridyl]-5H-pyrrolo[2,3-b]pyrazine] |
| 0.0001 to 1 | O=S1(=O)CCCN1c1cc(-c2cnc3[nH]cc(-c4ccc5ncn(C6CCCNC6)c5c4)c3c2)ccn1 (stereo not shown) [P-311, 2-[4-[3-[3-(3-piperidyl)benzimidazol-5-yl]-1H-pyrrolo[2,3-b]pyridin-5-yl]-2-pyridyl]-1,2-thiazolidine 1,1-dioxide] |
| 0.0001 to 1 | COc1cnc2[nH]cc(-c3ccc4ncn(C(C)(C)C)c4c3)c2c1 [P-074, 1-tert-butyl-6-(5-methoxy-1H-pyrrolo[2,3-b]pyridin-3-yl)benzimidazole] |
| 0.0001 to 1 | CC(C)(C)n1cnc2ccc(-c3c[nH]c4ncc(-c5ccc(N6CCOCC6)nc5)cc34)cc21 [P-322, 4-[5-[3-(3-tert-butylbenzimidazol-5-yl)-1H-pyrrolo[2,3-b]pyridin-5-yl]-2-pyridyl]morpholine] |
| 0.0001 to 1 | CN1CCN(c2cccc(-c3cnc4[nH]cc(-c5ccc6ncn(C(C)(C)C)c6c5)c4n3)c2)CC1 [P-331, 7-(3-tert-butylbenzimidazol-5-yl)-2-[3-(4-methylpiperazin-1-yl)phenyl]-5H-pyrrolo[2,3-b]pyrazine] |
| 0.0001 to 1 | Cc1ncc(-c2cnc3[nH]cc(-c4ccc5ncn(C(C)(C)C)c5c4)c3n2)cn1 [P-289, 7-(3-tert-butylbenzimidazol-5-yl)-2-(2-methylpyrimidin-5-yl)-5H-pyrrolo[2,3-b]pyrazine] |
| 0.0001 to 1 | c1cc(N2CCCCC2)ccc1-c1cnc2[nH]cc(-c3ccc4ncn(C5CCCNC5)c4c3)c2n1 (stereo not shown) [P-346, 7-[3-(3-piperidyl)benzimidazol-5-yl]-2-[4-(1-piperidyl)phenyl]-5H-pyrrolo[2,3-b]pyrazine] |
| 0.0001 to 1 | COc1cc(-c2cnc3[nH]cc(-c4ccc5ncn(C6CCCN(S(C)(=O)=O)C6)c5c4)c3n2)ccn1 (stereo not shown) [P-281, 2-(2-methoxy-4-pyridyl)-7-[3-(1-methylsulfonyl-3-piperidyl)benzimidazol-5-yl]-5H-pyrrolo[2,3-b]pyrazine] |
| 0.0001 to 1 | CC(C)(C)n1cnc2ccc(-c3c[nH]c4ncc(-c5ccc(N6CCCS6(=O)=O)cc5)cc34)cc21 [P-320, 2-[4-[3-(3-tert-butylbenzimidazol-5-yl)-1H-pyrrolo[2,3-b]pyridin-5-yl]phenyl]-1,2-thiazolidine 1,1-dioxide] |
| 0.0001 to 1 | CC(C)(C)n1cnc2ccc(-c3c[nH]c4ncc(-c5ccc(N6CCCCC6)cc5)nc34)cc21 [P-345, 7-(3-tert-butylbenzimidazol-5-yl)-2-[4-(1-piperidyl)phenyl]-5H-pyrrolo[2,3-b]pyrazine] |
| 0.0001 to 1 | COc1cnc2[nH]cc(-c3ccc4ncn(C5CCCNC5)c4c3)c2c1 (stereo not shown) [P-079, 5-methoxy-3-[3-(3-piperidyl)benzimidazol-5-yl]-1H-pyrrolo[2,3-b]pyridine] |
| 0.0001 to 1 | CCN1CCN(c2ccc(-c3cnc4[nH]cc(-c5ccc6ncn(C(C)(C)C)c6c5)c4n3)cc2)CC1 [P-358, 7-(3-tert-butylbenzimidazol-5-yl)-2-[4-(4-ethylpiperazin-1-yl)phenyl]-5H-pyrrolo[2,3-b]pyrazine] |
| 0.0001 to 1 | FC(F)(F)Cn1cc(-c2cnc3[nH]cc(-c4ccc5ncn(C6CCCNC6)c5c4)c3c2)cn1 (stereo not shown) [P-275, 1-(3-piperidyl)-6-[5-[1-(2,2,2-trifluoroethyl)pyrazol-4-yl]-1H-pyrrolo[2,3-b]pyridin-3-yl]benzimidazole] |
| 0.0001 to 1 | COc1cc(C#Cc2cnc3[nH]cc(-c4ccc5ncn(C6CCCNC6)c5c4)c3n2)ccn1 (stereo not shown) [P-280, 2-((2-methoxypyridin-4-yl)ethynyl)-7-(1-(piperidin-3-yl)-1H-benzo[d]imidazol-6-yl)-5H-pyrrolo[2,3-b]pyrazine] |
| 10 to 200 | COc1ncc(-c2cnc3[nH]cc(-c4ccc5ncn(C6CCCNC6)c5c4)c3c2)cn1 (stereo not shown) [P-276, 5-(2-methoxypyrimidin-5-yl)-3-[3-(3-piperidyl)benzimidazol-5-yl]-1H-pyrrolo[2,3-b]pyridine] |
